The text below walks through data of patent US10294207B2, “Pyrazole derivatives as TNIK, IKKϵ and TBK1 inhibitor and pharmaceutical composition comprising same” (GREEN CROSS CORPORATION, priority 2015, dated 2019).

The structures appear in SMILES notation.

One experiment concerns the target T1, IKKε (Homo sapiens, UniProt Q14164).
T1 construct: purchased Invitrogen PR8031B
T1 sequence (Q14164 1-716): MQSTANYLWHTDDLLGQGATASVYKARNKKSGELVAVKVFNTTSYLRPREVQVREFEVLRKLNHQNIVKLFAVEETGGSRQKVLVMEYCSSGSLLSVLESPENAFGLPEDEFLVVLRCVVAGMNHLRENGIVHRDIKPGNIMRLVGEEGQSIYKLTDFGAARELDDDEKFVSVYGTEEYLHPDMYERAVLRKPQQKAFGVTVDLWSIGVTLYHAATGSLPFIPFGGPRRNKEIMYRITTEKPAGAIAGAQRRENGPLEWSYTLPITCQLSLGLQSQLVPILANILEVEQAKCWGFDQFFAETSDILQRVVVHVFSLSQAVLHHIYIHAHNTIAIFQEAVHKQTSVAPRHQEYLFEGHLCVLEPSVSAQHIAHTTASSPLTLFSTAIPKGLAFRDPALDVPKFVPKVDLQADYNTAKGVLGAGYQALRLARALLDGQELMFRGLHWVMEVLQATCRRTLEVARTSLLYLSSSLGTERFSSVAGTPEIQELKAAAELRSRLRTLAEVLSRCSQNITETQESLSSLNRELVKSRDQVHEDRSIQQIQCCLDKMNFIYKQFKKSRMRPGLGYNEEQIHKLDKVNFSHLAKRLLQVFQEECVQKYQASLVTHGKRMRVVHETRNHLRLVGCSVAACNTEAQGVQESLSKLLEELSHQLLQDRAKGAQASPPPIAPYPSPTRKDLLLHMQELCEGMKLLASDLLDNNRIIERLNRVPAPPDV
The experiment can be described thus: IKKε inhibition, ADP-Glo Kinase Assay. It is filed as biochemical. The note with it: luminometer. Here is the method: (§1) Inhibition activities on TNIK, IKKε and TBK1 were evaluated using the compounds of Examples 1 to 254.
(§2) The inhibition activities on TNIK, IKKε and TBK1 were measured by a luminometer, TNIK/IKKε/TBK1 Kinase Enzyme System (Promega, Ca# V4158; Invitrogen, PR8031B, Promega, Ca# V3991) and ADP-Glo Kinase Assay using ADP-Glo™ Kinase Analysis Kit (Promega, Ca# V9101) and a kinase reaction buffer [40 mM Tris(pH 7.5), 20 mM MgCl2, 0.1 mg/mL BSA] in accordance with the manufacturer's protocol.
(In general: In ADP-Glo the light output rises with the ADP produced.)

In a further experiment the target is T2, TBK1 (Homo sapiens, UniProt Q9UHD2).
T2 construct: purchased Promega V3991
T2 sequence (Q9UHD2 1-729): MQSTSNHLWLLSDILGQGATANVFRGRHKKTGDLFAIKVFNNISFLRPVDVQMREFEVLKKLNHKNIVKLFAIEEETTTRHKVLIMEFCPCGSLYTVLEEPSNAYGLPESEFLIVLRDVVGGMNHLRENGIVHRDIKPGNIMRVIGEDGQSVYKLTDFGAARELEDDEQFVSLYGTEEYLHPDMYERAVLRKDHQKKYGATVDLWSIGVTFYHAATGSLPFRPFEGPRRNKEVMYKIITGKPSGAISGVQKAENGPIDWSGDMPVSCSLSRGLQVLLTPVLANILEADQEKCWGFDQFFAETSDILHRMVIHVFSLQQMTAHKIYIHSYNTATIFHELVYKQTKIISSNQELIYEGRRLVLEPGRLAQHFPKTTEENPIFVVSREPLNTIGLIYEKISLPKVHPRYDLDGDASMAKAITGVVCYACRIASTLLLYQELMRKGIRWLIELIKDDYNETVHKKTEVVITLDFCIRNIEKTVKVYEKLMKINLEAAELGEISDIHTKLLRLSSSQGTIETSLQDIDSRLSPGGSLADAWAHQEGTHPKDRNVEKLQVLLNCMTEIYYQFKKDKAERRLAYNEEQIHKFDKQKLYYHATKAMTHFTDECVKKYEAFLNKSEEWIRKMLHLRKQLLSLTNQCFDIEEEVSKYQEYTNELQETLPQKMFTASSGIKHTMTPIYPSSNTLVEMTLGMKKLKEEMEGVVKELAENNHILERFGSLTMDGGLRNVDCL
Description: TBK1 inhibition, ADP-Glo Kinase Assay. It is filed as biochemical. Particulars: luminometer. Here is the method:
as §1, §2

Regarding `CCC(NC(=O)c1ccc2[nH]nc(NC(=O)c3ccc(N4CC(C)NC(C)C4)cc3)c2c1)c1cccs1` (centres unmarked) [Example 95, 3-(4-(3,5-dimethylpiperazin-1-yl)benzamido)-N-(1-(thiophen-2-yl)propyl)-1H-indazole-5-carboxamide 2,2,2-trifluoroacetate], the results for the IC50 against IKKε and on TBK1 were 0.021 µM and 0.0028 µM, respectively.

Turning to `CN1CCN(c2ccc(C(=O)Nc3n[nH]c4ccc(C(=O)NCc5ccc(C(F)(F)F)nc5)cc34)cc2)CC1` [Example 72, 3-(4-(4-Methylpiperazin-1-yl)benzamido)-N-((6-(trifluoromethyl)pyridin-3-yl)methyl)-1H-indazole-5-carboxamide], the IC50 – broadly, the point on the concentration scale where inhibition reaches its midpoint – at IKKε was 1.83 µM; against TBK1 it was 0.35 µM.

With `CC(NC(=O)c1ccc2[nH]nc(NC(=O)c3ccc(N4CCN(C)CC4)cc3)c2c1)c1nccs1` (centres unmarked) [Example 82, 3-(4-(4-Methylpiperazin-1-yl)benzamido)-N-(1-(thiazol-2-yl)ethyl)-1H-indazole-5-carboxamide], the results for the IC50 on IKKε and against TBK1 were 0.074 µM and 0.014 µM, respectively.

For the compound `C[C@H]1CN(c2ccc(C(=O)Nc3n[nH]c4ccc(C(=O)NC(C)(C)c5cccs5)cc34)cc2)CCN1` [Example 137, (S)-3-(4-(3-Methylpiperazin-1-yl)benzamido)-N-(2-(thiophen-2-yl)propan-2-yl)-1H-indazole-5-carboxamide], the IC50 on IKKε turned out to be 0.032 µM; on TBK1, 0.0049 µM.

Turning to `CCCCNC(=O)c1ccc2[nH]nc(NC(=O)c3ccc(N4CCN(C)CC4)cc3)c2c1` [Example 113, N-Butyl-3-(4-(4-methylpiperazin-1-yl)benzamido)-1H-indazole-5-carboxamide 2,2,2-trifluoroacetate], the IC50 against IKKε stood at 0.18 µM; at TBK1, 0.018 µM.

In the case of `CN1CCN(c2ccc(C(=O)Nc3n[nH]c4ccc(C(=O)NCc5cscn5)cc34)cc2)CC1` [Example 174, 3-(4-(4-Methylpiperazin-1-yl)benzamido)-N-(thiazol-4-ylmethyl)-1H-indazole-5-carboxamide], the IC50 against IKKε was 0.54 µM; against TBK1, 0.045 µM.

With `CNCCN(C)c1ccc(C(=O)Nc2n[nH]c3ccc(C(=O)NCc4cccs4)cc23)cc1` [Example 155, 3-(4-(Methyl(2-(methylamino)ethyl)amino)benzamido)-N-(thiophen-2-ylmethyl)-1H-indazole-5-carboxamide], the IC50 against IKKε was 0.094 µM; on TBK1, 0.0064 µM.

Regarding `CCC(NC(=O)c1ccc2[nH]nc(NC(=O)c3ccc(N4CCN(C)CC4)cc3)c2c1)c1ccccc1` (centres unmarked) [Example 187, 3-(4-(4-Methylpiperazin-1-yl)benzamido)-N-(1-phenylpropyl)-1H-indazole-5-carboxamide], the results for the IC50 at IKKε and on TBK1 were 0.018 µM and 0.0035 µM, respectively.

As to `CN(C)CCCNc1ccc(C(=O)Nc2n[nH]c3ccc(C(=O)NCc4cccs4)cc23)cc1` [Example 154, 3-(4-((3-(Dimethylamino)propyl)amino)benzamido)-N-(thiophen-2-ylmethyl)-1H-indazole-5-carboxamide], the IC50 against IKKε was found to be 0.13 µM; at TBK1, 0.0086 µM.

Consider `CN1CCN(c2ccc(C(=O)Nc3n[nH]c4ccc(C(=O)NC(C)(C)c5ccccc5)cc34)cc2)CC1` [Example 63, 3-(4-(4-Methylpiperazin-1-yl)benzamido)-N-(2-phenylpropan-2-yl)-1H-indazole-5-carboxamide], for which the figures for the IC50 on IKKε and against TBK1 were 0.036 µM and 0.0094 µM, respectively.

For `O=C(NCc1ccc(C(F)(F)F)cc1)c1ccc2[nH]nc(NC(=O)c3ccc(N4CCOCC4)cc3)c2c1` [Example 65, 3-(4-Morpholinobenzamido)-N-(4-(trifluoromethyl)benzyl)-1H-indazole-5-carboxamide], the IC50 against IKKε stood at 1.95 µM; against TBK1 it was 0.76 µM.

Consider `CC(NC(=O)c1ccc2[nH]nc(NC(=O)c3ccc(N4CCOCC4)cc3)c2c1)c1ccccn1` (centres unmarked) [Example 127, 3-(4-Morpholinobenzamido)-N-(1-(pyridin-2-yl)ethyl)-1H-indazole-5-carboxamide], for which the IC50 against IKKε was 0.14 µM; at TBK1 it was 0.027 µM.

As for `C[C@@H](NC(=O)c1ccc2[nH]nc(NC(=O)c3ccc(N4CCN(C)CC4)cc3)c2c1)c1ccccc1` [Example 175, (R)-3-(4-(4-Methylpiperazin-1-yl)benzamido)-N-(1-phenylethyl)-1H-indazole-5-carboxamide], the IC50 against IKKε is 0.0076 µM; at TBK1, 0.0024 µM.

Consider `CC(NC(=O)c1ccc2[nH]nc(NC(=O)c3ccc(N4C[C@@H](C)N[C@@H](C)C4)cc3)c2c1)c1ccccc1` (stereo partly drawn) [Example 186, 3-(4-((3R,5S)-3,5-Dimethylpiperazin-1-yl)benzamido)-N-(1-phenylethyl)-1H-indazole-5-carboxamide], for which the IC50 at IKKε was 0.012 µM; against TBK1 it was 0.0027 µM.

Turning to `CN1CCN(c2ccc(C(=O)Nc3n[nH]c4ccc(C(=O)NCc5c[nH]nn5)cc34)cc2)CC1` [Example 94, N-((1H-1,2,3-Triazol-4-yl)methyl)-3-(4-(4-methylpiperazin-1-yl)benzamido)-1H-indazole-5-carboxamide], the results for the IC50 against IKKε and against TBK1 were 1.59 µM and 0.24 µM, respectively.

As for `CC(C)(NC(=O)c1ccc2[nH]nc(NC(=O)c3ccc(F)cc3)c2c1)c1cccs1` [Example 215, 3-(4-Fluorobenzamido)-N-(2-(thiophen-2-yl)propan-2-yl)-1H-indazole-5-carboxamide], the IC50 came to 0.32 µM on IKKε and 0.021 µM at TBK1.

With `CN1CCN(c2ccc(C(=O)Nc3n[nH]c4ccc(C(=O)NCc5ccncc5)cc34)cc2)CC1` [Example 121, 3-(4-(4-Methylpiperazin-1-yl)benzamido)-N-(pyridin-4-ylmethyl)-1H-indazole-5-carboxamide], the figures for the IC50 against IKKε and on TBK1 were 0.11 µM and 0.0063 µM, respectively.

Consider `CCCC(NC(=O)c1ccc2[nH]nc(NC(=O)c3ccc(N4CCN(C)CC4)cc3)c2c1)c1cccs1` (centres unmarked) [Example 59, 3-(4-(4-Methylpiperazin-1-yl)benzamido)-N-(1-(thiophen-2-yl)butyl)-1H-indazole-5-carboxamide], for which the IC50 on IKKε was 0.11 µM; against TBK1, 0.032 µM.

As for `Cc1noc(CNC(=O)c2ccc3[nH]nc(NC(=O)c4ccc(N5CCN(C)CC5)cc4)c3c2)n1` [Example 101, N-((3-Methyl-1,2,4-oxadiazol-5-yl)methyl)-3-(4-(4-methylpiperazin-1-yl)benzamido)-1H-indazole-5-carboxamide 2,2,2-trifluoroacetate], the values for the IC50 at IKKε and against TBK1 were 0.96 µM and 0.15 µM, respectively.

With `Cn1cc(C(=O)Nc2n[nH]c3ccc(C(=O)NCc4cccs4)cc23)cn1` [Example 7, 3-(1-Methyl-1H-pyrazole-4-carboxamido)-N-(thiophen-2-ylmethyl)-1H-indazole-5-carboxamide], the IC50 against IKKε was 0.25 µM; against TBK1, 0.16 µM.

For the compound `CC(NC(=O)c1ccc2[nH]nc(NC(=O)c3ccc(N4CCN[C@@H](C)C4)cc3)c2c1)c1ccccc1` (some centres unmarked) [Example 184, 3-(4-((8)-3-Methylpiperazin-1-yl)benzamido)-N-(1-phenylethyl)-1H-indazole-5-carboxamide 2,2,2-trifluoroacetate], the IC50 against IKKε stood at 0.015 µM; against TBK1 it was 0.0037 µM.

As to `CCCCNC(=O)c1ccc2[nH]nc(NC(=O)c3ccc(N4CCOCC4)cc3)c2c1` [Example 115, N-Butyl-3-(4-morpholinobenzamido)-1H-indazole-5-carboxamide 2,2,2-trifluoroacetate], the IC50 against IKKε is 0.97 µM; at TBK1, 0.071 µM.
